In PubChem BioAssay (NCI):
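Five compound concentrations were applied to cells in 96-well plates for 48 hours; endpoints were derived by simple linear interpolation of the resulting dose-response curve. GI50 = concentration required for 50% inhibition of growth. Definition used: TGI = concentration required for complete inhibition of growth.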 Where a SMILES comes first, the peptide text is derived from it. [ ]: non-standard residue; d: D form. The star is where a group is joined. ξ: configuration not given here. 4Abz = Nc1ccc(C(=O)O)cc1; ξL = CC(C)CC(N)C(=O)O; NHOH = ON*

Legend:
Experiment in all cases: growth of human tumour cells (NCI), 48 h
OVCAR-8 ovarian = test system: OVCAR-8 ovarian
SW-620 colon = test system: SW-620 colon
UACC-62 melanoma = test system: UACC-62 melanoma
CCRF-CEM leukemia = test system: CCRF-CEM leukemia
SK-OV-3 ovarian = test system: SK-OV-3 ovarian
SNB-75 CNS = test system: SNB-75 CNS
OVCAR-4 ovarian = test system: OVCAR-4 ovarian
SK-MEL-5 melanoma = test system: SK-MEL-5 melanoma
SF-539 CNS = test system: SF-539 CNS
HCT-15 colon = test system: HCT-15 colon

Compound | TGI (OVCAR-8 ovarian) [µM] | TGI (SW-620 colon) [µM] | TGI (UACC-62 melanoma) [µM] | TGI (CCRF-CEM leukemia) [µM] | TGI (SK-OV-3 ovarian) [µM] | TGI (SNB-75 CNS) [µM] | TGI (OVCAR-4 ovarian) [µM] | TGI (SK-MEL-5 melanoma) [µM] | TGI (SF-539 CNS) [µM] | GI50 (OVCAR-8 ovarian) [µM] | GI50 (SW-620 colon) [µM] | GI50 (CCRF-CEM leukemia) [µM] | GI50 (SK-OV-3 ovarian) [µM] | GI50 (HCT-15 colon) [µM] | TGI (HCT-15 colon) [µM] | GI50 (SNB-75 CNS) [µM] | GI50 (OVCAR-4 ovarian) [µM] | GI50 (SK-MEL-5 melanoma) [µM] | GI50 (SF-539 CNS) [µM] | GI50 (UACC-62 melanoma) [µM]
CCOc1cccc2cccnc12 | > 100 | > 100 | > 100 | > 100 | > 100 | > 100 | > 100 | > 100 | > 100 |  |  |  |  |  |  |  |  |  |  | 
C=CC[n+]1c(/C=C2\Sc3ccccc3N2C)sc(-c2ccccc2)c1-c1ccccc1 | 10.9 | 13.3 |  | 11.8 | 0.92 |  | 11.9 | 0.32 | 12.5 | 0.338 | 0.366 | 0.353 | 0.296 | 2.18 | 13.4 | 0.298 | 0.274 | 0.173 | 0.411 | 
CC(C)CC(NC(=O)[C@@H]1CCCN1C(=O)CNC(=O)c1ccc(N)cc1)C(=O)N[C@H](C)C(=O)NO (stereo partly drawn) (H-[4Abz]GP[ξL][dA]-{NHOH}) | > 100 | > 100 | > 100 |  | > 100 | > 100 | > 100 | > 100 | > 100 | > 100 | > 100 |  | > 100 | > 100 | > 100 | > 100 | > 100 | > 100 | > 100 | > 100
COc1ncn(C2C=C(CO)C(O)C2O)c(=O)n1 (stereo not drawn) | > 100 |  | > 100 |  | > 100 | > 100 | > 100 | > 100 | > 100 |  |  |  |  |  | > 100 |  |  |  |  | 
COC(=O)C1=C(O)C(C(=O)OC)[C@@]2(O)[C@@H](C(=O)OC)C(c3ccccc3C(F)(F)F)C[C@@H]1[C@@H]2C(=O)OC (stereo partly drawn) | 24.5 | 20.1 | 15 | 11.2 | 7 | 1.53 |  | 13.2 | 5.71 | 10.1 | 4.02 | 2.13 | 1.58 | 1.4 | 3.11 | 0.0935 |  | 3.46 | 2.14 | 4.09
CCOC(=O)C(=C=Cc1cccs1)C(=O)c1ccccc1 | 29.3 | 31.9 | 30.3 | > 100 | 62.8 | 29.8 | 39.4 | 10.5 | 30.6 |  |  |  |  |  | 30.1 |  |  |  |  | 
COC(=O)C(=O)C(C(=O)C(=O)Nc1ccc(Cl)cc1Cl)c1nc2ccc(Cl)cc2[nH]c1=O (stereo not drawn) | > 100 | > 100 | > 100 | > 100 | > 100 | > 100 | > 100 | > 100 | > 100 |  |  |  |  |  | > 100 |  |  |  |  | 
CC(=O)OCC1OC(n2c(-c3ccc(N)cc3)cc(-c3ccco3)c(C#N)c2=O)C(OC(C)=O)C(OC(C)=O)C1OC(C)=O (stereo not drawn) | > 50 | > 50 | > 50 |  | > 50 | > 50 | > 50 | > 50 | 30.2 |  |  |  |  |  | > 50 |  |  |  |  | 
CCCCCCCCOCC(O)COC (stereo not drawn) | > 100 | > 100 | > 100 | > 100 | > 100 |  | > 100 | > 100 |  |  |  |  |  |  | > 100 |  |  |  |  | 
O=C(O)C(=O)/C=C\c1ccc(Cl)cc1 | > 100 | 27 | > 100 | > 100 | > 100 | > 100 | > 100 | > 100 | > 100 |  |  |  |  |  | > 100 |  |  |  |  | 
O=C(NCCc1ccccc1)C(c1csc2ccccc12)N(C(=O)CCl)c1ccc(-c2cnco2)cc1 (stereo not drawn) | 1.28 | 1.29 | 2.85 | 0.0594 | 2.69 | 0.99 | 5.14 | 3.01 | 0.257 | 0.169 | 0.391 | 0.0229 | 1.25 | 0.596 | 1.84 | 0.502 | 1.7 | 1.62 | 0.126 | 1.3
O=C(CCCCCn1c2ccccc2c2c3c(c4c5ccccc5[nH]c4c21)C(=O)N(O)C3=O)N1CCOCC1 | 7.86 | 6.02 | 5.4 | 4.93 | 5.81 |  | > 100 | 3.06 |  | 2.84 | 2.12 | 1.43 | 2.27 | 2.67 | 8.32 |  | 3.57 | 1.64 |  | 2.05
CC(C)n1c2c(c3ccccc3c1=O)C(=O)c1ccccc1-2 | > 100 | > 100 | > 100 | > 100 | > 100 | > 100 | > 100 | > 100 | > 100 |  |  |  |  |  | > 100 |  |  |  |  | 
COc1ccc(OC)c(-c2cc(-c3ccc(Cl)cc3)nn2-c2ccc(S(N)(=O)=O)cc2)c1 | 34.6 | > 100 | 12.1 |  |  |  |  | 35.4 | 34.3 | 11.3 | 4.29 |  |  | 2.84 | 10.7 |  |  | 14.5 | 17.6 | 2.98
COc1cc(OC)c(Oc2cccc(OC)c2OC)c(OC)c1 | > 100 | > 100 | > 100 | > 100 | > 100 | > 100 | > 100 | > 100 | > 100 |  |  |  |  |  |  |  |  |  |  | 
COC(=O)C1=C(O)C(C(=O)OC)[C@@]2(O)[C@@H](C(=O)OC)C(c3ccc(OC(=O)C(Cc4ccccc4)NC(C)=O)cc3)C[C@@H]1[C@@H]2C(=O)OC (stereo partly drawn) | 59.2 | > 100 | 40.9 | > 100 | > 100 |  |  | 39.3 | 73.1 | 23.1 | 29.7 | 32.9 | 37.5 | 13.3 | 28.4 |  |  | 18 | 33.6 | 16.1
COC(=O)c1ccc2c(c1)[n+](=O)c(C(C)=O)c(C(F)(F)F)n2[O-] | 8.28 | 3.83 | 3.14 | > 100 | 4.48 | 2.71 |  | 3.06 | 3.36 | 2.87 | 1.95 | 4.62 | 2.22 | 1.83 | 3.52 | 1.4 |  | 1.69 | 1.85 | 1.71
